Experiment [1] has as its target T1, Streptococcus pneumoniae NanB fragment (residues 30-697, SEQ ID NO:4) variant Sia-PS4, E541A (Streptococcus pneumoniae serotype 4, UniProt Q54727, E541A).
T1 construct: exemplified by a NanB fragment (residues 30-697); poly-histidine; made in house; host or cells: pET28a+ based plasmid
T1 sequence (Q54727 30-692 E541A): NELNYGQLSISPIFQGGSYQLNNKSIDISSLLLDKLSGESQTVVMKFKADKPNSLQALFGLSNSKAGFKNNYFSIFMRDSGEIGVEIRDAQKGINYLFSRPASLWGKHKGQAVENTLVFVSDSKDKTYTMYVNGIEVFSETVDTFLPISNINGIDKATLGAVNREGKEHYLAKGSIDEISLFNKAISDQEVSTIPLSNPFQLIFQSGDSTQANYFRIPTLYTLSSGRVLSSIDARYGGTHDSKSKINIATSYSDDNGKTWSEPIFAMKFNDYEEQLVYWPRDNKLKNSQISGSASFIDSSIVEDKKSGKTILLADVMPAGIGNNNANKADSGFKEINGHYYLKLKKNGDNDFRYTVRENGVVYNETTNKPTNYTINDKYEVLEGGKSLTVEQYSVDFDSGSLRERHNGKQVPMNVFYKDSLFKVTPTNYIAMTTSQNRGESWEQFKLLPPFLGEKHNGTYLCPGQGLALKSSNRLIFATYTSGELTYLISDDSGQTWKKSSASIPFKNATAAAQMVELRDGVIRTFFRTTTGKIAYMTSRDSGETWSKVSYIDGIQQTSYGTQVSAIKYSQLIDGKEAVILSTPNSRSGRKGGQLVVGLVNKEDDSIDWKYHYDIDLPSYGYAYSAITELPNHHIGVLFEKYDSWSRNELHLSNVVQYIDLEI
Description: Bio-layer Interferometry (BLI) steady-state binding to immobilized oligosaccharides. Conditions: in words. An excerpt: (§1) Lsp=lactose (no sialic acid), 3′SL=α2,3-sialyllactose, 6′SL=α2,6-sialyllactose, GD3=GD3 oligosaccharide that contains a terminal α2,8-linked Neu5Ac residue and an internal α2,3-linked Neu5Ac residue.
(§2) The pan-specific sialic acid-recognizing affinity reagent of the invention is exemplified by a NanB fragment (residues 30-697; SEQ ID NO:4) with a single mutation. Exemplary mutation sites include Y653, D270, and E541. Exemplary pan-specific affinity reagents, each having a single mutation in the NanB GH domain as noted, are shown in Table 2 and include Sia-PS1 (Y653F), Sia-PS2 (D270A), Sia-PS3 (D270N), Sia-PS4 (E541A), and Sia-PS5 (E541Q). […] They reduce (Sia-PS2 and Sia-PS3) or effectively eliminate (Sia-PS1, Sia-PS4, and Sia-PS5) catalytic activity, and they broaden specificity for sialic acid ligand binding. The pan-specific sialic acid-recognizing affinity reagent we chose for further validation study was Sia-PS1 that contains the Y653F at active site residue Tyr653. This one mutation, which involves removal of a single hydroxyl group, not only eliminates enzyme activity, but astonishingly introduces pan-specific binding into the mutated, inactivated enzyme, despite its distance from the carbohydrate binding module (CBM) domain of the NanB.
(§3) The flowchart presented in FIG. 2 outlines schematically the methods employed in Example I and II to screen, optimize and select the Lectenz® candidates. The specificity and affinity of potential Lectenz® candidates is evaluated through structurally-guided site-specific and/or site-saturation mutagenesis assays designed to enable the selection of optimal clones. Bio-layer Interferometry (BLI) is used to determine the binding kinetics and affinities for binding to glycans and glycoproteins. Affinity chromatography is performed by immobilizing the Lectenz® candidates in a column format to evaluate their ability to fractionate sialylated- and asialo-glycans and glycoconjugates. All promising Lectenz® candidates are screened against the glycan array at the CFG, which currently contains over 600 O- and N-linked glycans.
(§4) Steady-state binding constants between Lectenz® candidates and sialic acid ligands were measured by BLI.

In experiment [2] the target is T2, Streptococcus pneumoniae NanB fragment (residues 30-697, SEQ ID NO:4) variant Sia-PS1, Y653F (Streptococcus pneumoniae serotype 4, UniProt Q54727, Y653F).
T2 construct: exemplified by a NanB fragment (residues 30-697); made in house; host or cells: pET28a+ based plasmid
T2 sequence (Q54727 30-692 Y653F): T1 sequence (Q54727 30-692 E541A) with A512E, Y624F
Described as above. Conditions: in words.
Text: as §1, §2, §3, §4

Changes are numbered by the printed parent chain. Entries after “also recorded” stand apart in the source; their conditions may differ.

Our source for the binding affinity and KD value values is patent US11434479B2, “Sialic acid binding polypeptide” (priority 2017, dated 2022).

With `CC(=O)N[C@H]1[C@H]([C@H](O)[C@H](O)CO)O[C@@](O[C@H](CO)[C@@H](O)[C@@H]2O[C@@](O[C@H]3[C@@H](O)[C@@H](CO)O[C@@H](O[C@H]4[C@H](O)[C@@H](O)C(O)O[C@@H]4CO)[C@@H]3O)(C(=O)O)C[C@H](O)[C@H]2NC(C)=O)(C(=O)O)C[C@@H]1O` (stereo partly shown) [GD3, Neu5Acα2,8Neu5Acα2,3Galβ1, 4Glcβ], the values for the binding affinity entry in experiment [1] and in experiment [2] were “micromolar or sub-micromolar” and “micromolar or sub-micromolar; also recorded: sub-micromolar”, respectively.
For `CC(=O)N[C@H]1[C@H]([C@H](O)[C@H](O)CO)O[C@@](OC[C@H]2O[C@@H](O[C@H]3[C@H](O)[C@@H](O)C(O)O[C@@H]3CO)[C@H](O)[C@@H](O)[C@H]2O)(C(=O)O)C[C@@H]1O` (stereo partly shown) [6′SL, 6′-sialyllactose (Neu5Acα2,6Galβ1, 4Glcβ, or 6′SL)], the binding affinity entry in experiment [1] was “micromolar or sub-micromolar”; in experiment [2], “micromolar or sub-micromolar; also recorded: sub-micromolar”.
Consider `CC(=O)N[C@H]1[C@H]([C@H](O)[C@H](O)CO)O[C@@](O[C@H]2[C@@H](O)[C@@H](CO)O[C@@H](O[C@H]3[C@H](O)[C@@H](O)C(O)O[C@@H]3CO)[C@@H]2O)(C(=O)O)C[C@@H]1O` (stereo partly drawn) [3′SL, α2,3-sialyllactose], for which, in experiment [1], the KD value entry is reported as “sub-micromolar” and the binding affinity result was “micromolar or sub-micromolar”. Moreover, the binding affinity entry in experiment [2] is given as “micromolar or sub-micromolar; also recorded: sub-micromolar”.
